# Experiments:
# [1] = test system: P. aeruginosa ATCC 2783; assay: MIC by resazurin staining assay, P. aeruginosa; format: cell-based, Pseudomonas aeruginosa
# Description: (§1) The […] growth inhibition (MIC) using natural tunicamycin (TUN), a tunicamycin derivative TunR2, polymyxin B, or a combination of polymyxin B with TUN or TunR2 were tested. Testing was performed using the resazurin staining assay. The resazurin staining assay uses the reduction by bacterial viable cells of the blue, non-fluorescent, and non-toxic dye, resazurin, to pink, fluorescent resorufin to assess the viability of biofilms. The Minimal Inhibitory Concentration (MIC) values where determined using standard microbiological methods, for example by spotting dilutions of the compounds or combinations on solid agar media plates after inoculating with bacteria, yeast, or buffer alone, followed by incubating for a defined period. This method results in clearing zones on agar plates.
# (§2) To determine the MIC for polymyxin B alone, plates inoculated with E. coli MG1655 (Gram-negative bacterium), P. aeruginosa ATCC 2783 (Gram-negative bacterium), B. subtilis MW10 (Gram-positive bacterium), S. cerevisiae (eukaryote) in TYG, or DMSO alone (Control) were spotted with a dilution gradient of polymyxin B, and incubated for 24 hours at 30° C.
# (§3) To determine the MIC for TUN or TunR2 in the presence or absence of polymyxin B, plates inoculated with E. coli MG1655, or P. aeruginosa ATCC 2783 in TYG, were spotted with a dilution gradient of Tun or TunR2 in the presence or absence of polymyxin B at sub-MIC concentration (MIC/2), or DMSO alone (Control). Images of two plates inoculated with E. coli are shown in FIG. 4A and FIG. 4B, and images of two plates inoculated with P. aeruginosa are shown in FIG. 4C and FIG. 4D.
# The activity of Cefquinome alone, or in the presence of TunR2, polymyxin B, or polymyxin B and TunR2 on P. aeruginosa was tested. The MIC was determined using the resazurin staining assay described in Example 1.
# Plates inoculated with P. aeruginosa, or DMSO alone (Control) in TYG were spotted with a dilution gradient of Cefquinome in the presence of TunR2, polymyxin B, or polymyxin B and TunR2, and incubated for 24 hours at 37° C.
# [2] = test system: B. subtilis MW10; assay: MIC by resazurin staining assay, B. subtilis; format: cell-based, Bacillus subtilis; details: 24 hours at 30° C., TYG
# Description: as §1, §2
# [3] = test system: E. coli MG1655; assay: MIC by resazurin staining assay, E. coli; format: cell-based, Escherichia coli
# Description: as §1, §2, §3
# (§4) The activity of TUN or TunR2 in the presence or absence of polymyxin B on Serratia marcescens (a honey bee pathogen) or E. coli was tested. The MIC was determined using the resazurin staining assay described in Example 1.
# Plates inoculated with S. marcescens B-2544, E. coli, or DMSO alone (Control) in TYG were spotted with a dilution gradient of TUN or TunR2 in the presence or absence of a sub-MIC concentration of polymyxin B (half the MIC concentration), and incubated for 24 hours at 37° C. An image of a plate inoculated with S. marcescens is shown in FIG. 7A, and an image of a plate inoculated with E. coli is shown in FIG. 7B. […] The results obtained for E. coli compare well with the MICs of other antibiotics as taught by m. de Boer et al. (2015, “Minimum Inhibitory Concentrations of Selected Antimicrobials Against Escherichia Coli and Trueperella pyogenes of Bovine Uterine Origin,” J Dairy Sci. 98:4427-4438).
# [4] = test system: S. cerevisiae; assay: MIC by resazurin staining assay, yeast; format: cell-based, Saccharomyces cerevisiae; details: 24 hours at 30° C., TYG
# Description: as §1, §2
# [5] = test system: S. marcescens B-2544; assay: MIC by resazurin staining assay, S. marcescens; format: cell-based, Serratia marcescens; details: 24 hours at 37° C.
# Description: as §1, §4
# Plates inoculated with S. marcescens B-2544, E. coli, or DMSO alone (Control) in TYG were spotted with a dilution gradient of TUN or TunR2 in the presence or absence of a sub-MIC concentration of polymyxin B (half the MIC concentration), and incubated for 24 hours at 37° C. […]
# [6] = alone, dilution series, 24 hours at 37° C.
compound,measurement,setting,value
CO/N=C(\C(=O)N[C@@H]1C(=O)N2C(C(=O)[O-])=C(C[n+]3cccc4c3CCCC4)CS[C@H]12)c1csc(N)n1 [Cefquinome],MIC for Cefquinome (FIG. 8 legend),"[1]; P. aeruginosa in TYG, Cefquinome alone, 48 hours at 37° C.",10.0 mg/L
same,MIC for Cefquinome alone,"[1]; P. aeruginosa, 24 hours at 37° C.",10 mg/L
same,MIC for Cefquinome in the presence of polymyxin B and TunR2,"[1]; P. aeruginosa, with 2.5 μg/mL polymyxin B and 6.25 μg/mL TunR2, 24 hours at 37° C.",1.25 mg/L
same,MIC for Cefquinome in the presence of polymyxin B,"[1]; P. aeruginosa, with 2.5 μg/mL polymyxin B, 24 hours at 37° C.",5 mg/L
same,MIC for Cefquinome in the presence of TunR2,"[1]; P. aeruginosa, with 6.25 μg/mL TunR2, 24 hours at 37° C.",10 mg/L
polymyxin B,MIC for polymyxin B alone,[2],2.5 mg/L
same,MIC of polymyxin,"[3]; E. coli, polymyxin alone",0.625 mg/L
same,effect on yeast (MIC for polymyxin B alone),[4],not detectable
same,MIC of polymyxin,"[1]; Pseudomonas, polymyxin alone",5.0 mg/L
tunicamycin,MIC in the presence of polymyxin B,"[3]; Example 2, E. coli, sub-MIC polymyxin B (half the MIC), 24 hours at 37° C.",0.313 mg/L
same,effect on E. coli when used alone,"[3]; Example 2, absence of polymyxin B, 24 hours at 37° C., any of the concentrations tested",neither TUN nor TunR2 had a detectable effect
same,effect on E. coli in the absence of polymyxin B,[3]; [6],neither Tun nor TunR2 had noticeable effect
same,growth of E. coli in the presence of polymyxin B,"[3]; with polymyxin B at MIC/2 (0.313 μg/mL), 24 hours at 37° C.",no E. coli or P. aeruginosa grew
same,MIC in the presence of polymyxin B,"[5]; S. marcescens, sub-MIC polymyxin B (half the MIC)",5.0 mg/L
same,effect on S. marcescens when used alone,"[5]; absence of polymyxin B, any of the concentrations tested",neither TUN nor TunR2 had a detectable effect
same,effect on P. aeruginosa in the absence of polymyxin B,[1]; [6],neither Tun nor TunR2 had noticeable effect
same,growth of P. aeruginosa in the presence of polymyxin B,"[1]; with polymyxin B at MIC/2 (2.5 μg/mL), 24 hours at 37° C.",no E. coli or P. aeruginosa grew
